Experimental data as given in patent US8859546B2, “Picolinamide inhibitors of kinases” (AbbVie Inc., priority 2011, dated 2014).

Target: T1, ALK (Homo sapiens, UniProt Q9UM73)
T1 construct: purchased Millipore
Experiment: ALK kinase assay (HTRF), apparent Ki
Format: biochemical
Details: apparent Ki from IC50 by Cheng-Prusoff; ALK (Millipore), 50 μM ATP; read-out: HTRF_ALK Human-Ki
Method: The following procedure is used to determine ALK Activity.
ALK kinase assays were conducted with the indicated final concentrations unless otherwise specified. In 384 well black plates (Axygen), 8 μl of compound (2% DMSO) was incubated with 8 μl Lck-peptide substrate (0.5 μM, biotin-Ahx-GAEEEIYAAFFA-COOH) and 8 μl of a mixture of ALK (3 nM, Millipore) and ATP (50 μM) in reaction buffer (50 mM Hepes, pH 7.4; 10 mM MgCl2; 2 mM MnCl2; 0.1 mM sodium orthovanadate; 0.01% BSA and 1 mM DTT (added fresh before assay) for 1 h at room temperature. Reactions were then quenched by the addition of 30 μl quench solution (streptavidin-allophycocyanin and Europium-cryptate PT66 monoclonal antibody in 40 mM Hepes, pH 7.4; 480 mM KF; 66 mM EDTA; 0.01% Tween-20; and 0.1% BSA) at room temperature. Plates were read 1 h after quenching on an Envision Multilaber Reader and IC50 values were calculated using a sigmoidal fit of the concentration/inhibition response curves. These values were converted to apparent Ki values using the Cheng-Prusoff relationship.
Alternatively, 4 nM ALK (Millipore) and 50 μM ATP were pre-incubated for 30 min at room temperate in 384 well plates (Corning 3676) in 2.5× reaction buffer (125 nM SEB from Cisbio Bioassays, 12.5 mM MgCl2, 5 mM MnCl2, and 2.5 mM DTT). Reactions were initiated by the addition of 4 μl ALK-ATP mixture to 2 μl compounds (2% DMSO) and 4 μl TK-substrate biotin (Cisbio Bioassays). After incubation for 1 h at room temperature, reactions were quenched in 10 μl stop buffer (Cisbio detection buffer containing Streptavididn-XL665 and Eu-Cryptate PT66 monoclonal antibody). Plates were read 1 h after quenching on an Envision Multilaber Reader and IC50 values were calculated using a sigmoidal fit of the concentration/inhibition response curves. These values were converted to apparent Ki values using the Cheng-Prusoff relationship. Results are shown in Table 1 A correlates to an Ki=<100 nM, B correlates to an Ki between 100 nM and 1 μM, C correlates to an Ki=>1 μM.

T1 sequence (Q9UM73 19-1620): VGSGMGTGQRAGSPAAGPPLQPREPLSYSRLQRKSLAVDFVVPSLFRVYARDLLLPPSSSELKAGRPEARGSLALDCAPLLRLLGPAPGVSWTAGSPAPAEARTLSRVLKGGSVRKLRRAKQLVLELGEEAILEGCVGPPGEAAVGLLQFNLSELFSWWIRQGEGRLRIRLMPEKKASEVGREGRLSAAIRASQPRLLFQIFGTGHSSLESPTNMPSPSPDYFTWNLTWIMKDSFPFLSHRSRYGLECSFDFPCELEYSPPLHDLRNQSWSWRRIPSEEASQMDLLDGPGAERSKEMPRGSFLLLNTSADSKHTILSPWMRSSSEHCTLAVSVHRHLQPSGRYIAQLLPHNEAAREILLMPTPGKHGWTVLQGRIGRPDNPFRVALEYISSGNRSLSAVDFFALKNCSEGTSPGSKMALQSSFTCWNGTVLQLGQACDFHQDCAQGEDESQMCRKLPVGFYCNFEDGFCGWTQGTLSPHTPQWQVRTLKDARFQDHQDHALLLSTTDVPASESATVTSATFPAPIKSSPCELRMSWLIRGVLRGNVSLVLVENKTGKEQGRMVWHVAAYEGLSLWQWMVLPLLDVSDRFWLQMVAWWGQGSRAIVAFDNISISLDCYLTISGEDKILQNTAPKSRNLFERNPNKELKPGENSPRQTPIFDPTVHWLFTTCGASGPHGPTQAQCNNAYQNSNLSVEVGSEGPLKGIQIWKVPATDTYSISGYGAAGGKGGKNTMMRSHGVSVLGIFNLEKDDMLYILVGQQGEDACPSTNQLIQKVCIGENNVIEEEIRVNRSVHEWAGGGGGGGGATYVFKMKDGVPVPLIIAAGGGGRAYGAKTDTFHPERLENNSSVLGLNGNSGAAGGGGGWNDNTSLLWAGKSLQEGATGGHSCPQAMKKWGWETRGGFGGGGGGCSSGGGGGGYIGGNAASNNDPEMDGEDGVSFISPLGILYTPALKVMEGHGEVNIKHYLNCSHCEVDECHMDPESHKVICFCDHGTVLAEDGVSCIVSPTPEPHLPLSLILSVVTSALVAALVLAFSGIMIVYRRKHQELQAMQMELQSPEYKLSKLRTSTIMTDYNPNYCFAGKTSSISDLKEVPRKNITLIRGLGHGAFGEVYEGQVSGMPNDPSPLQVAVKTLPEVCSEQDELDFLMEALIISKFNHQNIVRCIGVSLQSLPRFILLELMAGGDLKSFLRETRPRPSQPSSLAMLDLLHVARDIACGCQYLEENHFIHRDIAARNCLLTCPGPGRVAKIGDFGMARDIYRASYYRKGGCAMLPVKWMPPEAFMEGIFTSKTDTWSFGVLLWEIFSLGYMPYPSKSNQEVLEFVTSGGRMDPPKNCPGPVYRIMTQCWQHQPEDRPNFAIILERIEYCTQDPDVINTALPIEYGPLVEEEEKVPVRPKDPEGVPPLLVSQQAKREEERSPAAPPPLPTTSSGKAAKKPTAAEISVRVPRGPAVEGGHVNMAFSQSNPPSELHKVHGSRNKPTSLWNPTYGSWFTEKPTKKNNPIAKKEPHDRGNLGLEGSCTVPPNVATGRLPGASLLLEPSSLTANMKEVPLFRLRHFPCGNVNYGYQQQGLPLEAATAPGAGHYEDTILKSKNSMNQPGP

Row | Ki | SMILES
1 | 100 to 1000 nM | CN1CCN(c2ccc(Nc3cc(Cc4ccccc4)cnc3C(N)=O)cc2)CC1 [Example 3, 5-benzyl-3-{[4-(4-methylpiperazin-1-yl)phenyl]amino}pyridine-2-carboxamide]
2 | 100 to 1000 nM | CN1CCN(c2cccc(Nc3cc(Cc4ccccc4)cnc3C(N)=O)c2)CC1 [Example 4, 5-benzyl-3-{[3-(4-methylpiperazin-1-yl)phenyl]amino}pyridine-2-carboxamide]
3 | 100 to 1000 nM | CN1CCN(c2ccc(Nc3cc(Cc4ccccc4)cnc3C(N)=O)cc2Cl)CC1 [Example 7, 5-benzyl-3-{[3-chloro-4-(4-methylpiperazin-1-yl)phenyl]amino}pyridine-2-carboxamide]
4 | > 1000 nM | Cc1cc(Nc2cc(Cc3ccccc3)cnc2C(N)=O)ccc1N1CCN(C)CC1 [Example 8, 5-benzyl-3-{[3-methyl-4-(4-methylpiperazin-1-yl)phenyl]amino}pyridine-2-carboxamide]
5 | 100 to 1000 nM | Cc1cc(N2CCN(C)CC2)ccc1Nc1cc(Cc2ccccc2)cnc1C(N)=O [Example 9, 5-benzyl-3-{[2-methyl-4-(4-methylpiperazin-1-yl)phenyl]amino}pyridine-2-carboxamide]
6 | < 100 nM | CN1CCN(c2ccc(Nc3cc(Cc4cccc(F)c4)cnc3C(N)=O)cc2)CC1 [Example 14, 5-(3-fluorobenzyl)-3-{[4-(4-methylpiperazin-1-yl)phenyl]amino}pyridine-2-carboxamide]
7 | 100 to 1000 nM | CN1CCN(c2ccc(Nc3cc(Cc4ccccc4Cl)cnc3C(N)=O)cc2)CC1 [Example 23, 5-(2-chlorobenzyl)-3-{[4-(4-methylpiperazin-1-yl)phenyl]amino}pyridine-2-carboxamide]
8 | 100 to 1000 nM | CN1CCN(c2ccc(Nc3cc(Cc4cccc(Cl)c4)cnc3C(N)=O)cc2)CC1 [Example 24, 5-(3-chlorobenzyl)-3-{[4-(4-methylpiperazin-1-yl)phenyl]amino}pyridine-2-carboxamide]
9 | > 1000 nM | CN1CCN(c2ccc(Nc3cc(Cc4ccc(Cl)cc4)cnc3C(N)=O)cc2)CC1 [Example 25, 5-(4-chlorobenzyl)-3-{[4-(4-methylpiperazin-1-yl)phenyl]amino}pyridine-2-carboxamide]
10 | 100 to 1000 nM | Cc1cccc(Cc2cnc(C(N)=O)c(Nc3ccc(N4CCN(C)CC4)cc3)c2)c1 [Example 26, 5-(3-methylbenzyl)-3-{[4-(4-methylpiperazin-1-yl)phenyl]amino}pyridine-2-carboxamide]
11 | > 1000 nM | Cc1ccccc1Cc1cnc(C(N)=O)c(Nc2ccc(N3CCN(C)CC3)cc2)c1 [Example 27, 5-(2-methylbenzyl)-3-{[4-(4-methylpiperazin-1-yl)phenyl]amino}pyridine-2-carboxamide]

The next lines start with the compound.

Row | SMILES | Ki
12 | COc1cc(N2CCNCC2)ccc1Nc1cc(Cc2c(Cl)cccc2Cl)cnc1C(N)=O [Example 1, 5-(2,6-dichlorobenzyl)-3-{[2-methoxy-4-(piperazin-1-yl)phenyl]amino}pyridine-2-carboxamide] | < 100 nM
13 | COc1cc(N2CCNCC2)ccc1Nc1cc(C(C)c2c(Cl)cccc2Cl)cnc1C(N)=O (centres unmarked) [Example 2, 5-[1-(2,6-dichlorophenyl)ethyl]-3-{[2-methoxy-4-(piperazin-1-yl)phenyl]amino}pyridine-2-carboxamide] | < 100 nM
14 | CN1CCN(c2ccc(Nc3cc(CC4CCCCC4)cnc3C(N)=O)cc2)CC1 [Example 5, 5-(cyclohexylmethyl)-3-{[4-(4-methylpiperazin-1-yl)phenyl]amino}pyridine-2-carboxamide] | 100 to 1000 nM
15 | CN1CCN(c2ccc(Nc3cc(-c4ccccc4)cnc3C(N)=O)cc2)CC1 [Example 6, 3-{[4-(4-methylpiperazin-1-yl)phenyl]amino}-5-phenylpyridine-2-carboxamide] | 100 to 1000 nM
16 | C=C(c1ccccc1)c1cnc(C(N)=O)c(Nc2ccc(N3CCN(C)CC3)cc2)c1 [Example 10, 3-{[4-(4-methylpiperazin-1-yl)phenyl]amino}-5-(1-phenylvinyl)pyridine-2-carboxamide] | 100 to 1000 nM
17 | CC(c1ccccc1)c1cnc(C(N)=O)c(Nc2ccc(N3CCN(C)CC3)cc2)c1 (centres unmarked) [Example 11, 3-{[4-(4-methylpiperazin-1-yl)phenyl]amino}-5-(1-phenylethyl)pyridine-2-carboxamide] | 100 to 1000 nM
18 | CN1CCN(c2ccc(Nc3cc(Cc4ccc(F)cc4)cnc3C(N)=O)cc2)CC1 [Example 12, 5-(4-fluorobenzyl)-3-{[4-(4-methylpiperazin-1-yl)phenyl]amino}pyridine-2-carboxamide] | 100 to 1000 nM
19 | CN1CCN(c2ccc(Nc3cc(Cc4ccccc4F)cnc3C(N)=O)cc2)CC1 [Example 13, 5-(2-fluorobenzyl)-3-{[4-(4-methylpiperazin-1-yl)phenyl]amino}pyridine-2-carboxamide] | < 100 nM
20 | CN1CCN(c2ccc(Nc3cc(Cc4c(F)cccc4F)cnc3C(N)=O)cc2)CC1 [Example 15, 5-(2,6-difluorobenzyl)-3-{[4-(4-methylpiperazin-1-yl)phenyl]amino}pyridine-2-carboxamide] | < 100 nM
21 | COc1ccc(Cc2cnc(C(N)=O)c(Nc3ccc(N4CCN(C)CC4)cc3)c2)cc1 [Example 16, 5-(4-methoxybenzyl)-3-{[4-(4-methylpiperazin-1-yl)phenyl]amino}pyridine-2-carboxamide] | 100 to 1000 nM
22 | CN1CCN(c2ccc(Nc3cc(Cc4ccc5ccccc5c4)cnc3C(N)=O)cc2)CC1 [Example 17, 3-{[4-(4-methylpiperazin-1-yl)phenyl]amino}-5-(2-naphthylmethyl)pyridine-2-carboxamide] | > 1000 nM
23 | CN1CCN(c2ccc(Nc3cc(Cc4cc(F)cc(F)c4)cnc3C(N)=O)cc2)CC1 [Example 18, 5-(3,5-difluorobenzyl)-3-{[4-(4-methylpiperazin-1-yl)phenyl]amino}pyridine-2-carboxamide] | < 100 nM
24 | CN1CCN(c2ccc(Nc3cc(Cc4ccc(F)c(F)c4)cnc3C(N)=O)cc2)CC1 [Example 19, 5-(3,4-difluorobenzyl)-3-{[4-(4-methylpiperazin-1-yl)phenyl]amino}pyridine-2-carboxamide] | 100 to 1000 nM
25 | CN1CCN(c2ccc(Nc3cc(Cc4ccc(F)cc4F)cnc3C(N)=O)cc2)CC1 [Example 20, 5-(2,4-difluorobenzyl)-3-{[4-(4-methylpiperazin-1-yl)phenyl]amino}pyridine-2-carboxamide] | 100 to 1000 nM
26 | CN1CCN(c2ccc(Nc3cc(Cc4cc(F)ccc4F)cnc3C(N)=O)cc2)CC1 [Example 21, 5-(2,5-difluorobenzyl)-3-{[4-(4-methylpiperazin-1-yl)phenyl]amino}pyridine-2-carboxamide] | < 100 nM
27 | COc1cccc(Cc2cnc(C(N)=O)c(Nc3ccc(N4CCN(C)CC4)cc3)c2)c1 [Example 22, 5-(3-methoxybenzyl)-3-{[4-(4-methylpiperazin-1-yl)phenyl]amino}pyridine-2-carboxamide] | 100 to 1000 nM
28 | COc1ccccc1Cc1cnc(C(N)=O)c(Nc2ccc(N3CCN(C)CC3)cc2)c1 [Example 28, 5-(2-methoxybenzyl)-3-{[4-(4-methylpiperazin-1-yl)phenyl]amino}pyridine-2-carboxamide] | 100 to 1000 nM
29 | Cc1ccc(Cc2cnc(C(N)=O)c(Nc3ccc(N4CCN(C)CC4)cc3)c2)cc1 [Example 29, 5-(4-methylbenzyl)-3-{[4-(4-methylpiperazin-1-yl)phenyl]amino}pyridine-2-carboxamide] | 100 to 1000 nM
